# Data: patent EP2607478A1, “Phenanthroline treated MSC” (Universiteit Twente, priority 2011, dated 2013)
# Test system: MSCs
# Assay: Whole genome expression analysis (Illumina microarray) of treated MSCs
# Format: cell-based, Human
# Description: MSCs were seeded in T25 flasks at 5000 cells/cm^2 and allowed to attach overnight in proliferation medium. […] After 48 hours, RNA was isolated as described above. From 500 ng of RNA, cRNA was synthesized using the Illumina TotalPrep RNA amplification Kit (Ambion), according to the manufacturer's protocol and the quality of RNA and cRNA was verified on a Bioanalyzer 2100 (Agilent). Microarrays were performed using Illumina HT-12 v4 expression Beadchips, according to the manufacturer's protocol. Briefly, 750 ng of cRNA was hybridized on the array overnight after which the array was washed and blocked. Then, by addition of streptavidin Cy-3 a fluorescent signal was developed. Arrays were scanned on an Illumina iScan reader and raw intensity values were background corrected in GenomeStudio (Illumina). Further data processing and statistical testing were performed with R and Bioconductor statistical software (www.bioconductor.org), using package lumi. Raw intensity values were transformed using variance stabilization and a quantile normalization was performed. A linear modelling approach with empirical Bayesian methods, as implemented in Limma package (54), was applied for differential expression analysis of the resulting probe-level expression values. A gene list, containing only those genes with an absolute 1.5-fold change between different treatments, was uploaded to Ingenuity Pathway Analysis (IPA) software and used for core analysis. Pathways or networks with a p-value of 0.05 were considered statistically significant.
structure (smiles),measurement,setting,value
"c1cnc2c(c1)ccc1cccnc12 [PHE, 1, 10-phenanthroline]",logFC(D142_PHE - D142_BAS),"ProbeID ILMN_1827736, no gene name printed","2,01"
same,logFC(D142_PHE - D142_BAS),"ProbeID ILMN_1843198, no gene name printed","4,02"
same,logFC(D142_PHE - D142_BAS),"ProbeID ILMN_1854469, no gene name printed","-2,31"
same,logFC(D142_PHE - D142_BAS),"ProbeID ILMN_1862909, no gene name printed","2,60"
same,logFC(D142_PHE - D142_BAS),"ProbeID ILMN_1890614, no gene name printed","3,60"
same,logFC(D142_PHE - D142_BAS) LDLR,ProbeID ILMN_2053415,"-2,22"
same,logFC(D142_PHE - D142_BAS) PTGS2,ProbeID ILMN_2054297,"2,59"
same,logFC(D142_PHE - D142_BAS) GAS1,ProbeID ILMN_2062701,"-2,22"
same,logFC(D142_PHE - D142_BAS) GOLGA8B,ProbeID ILMN_2103547,"2,29"
same,logFC(D142_PHE - D142_BAS) EEF1A2,ProbeID ILMN_2108735,"4,24"
same,logFC(D142_PHE - D142_BAS) NPM3,"ProbeID ILMN_2110252, PHE vs BAS","-2,68"
same,logFC(D142_PHE - D142_BAS) CTHRC1,"ProbeID ILMN_2117508, PHE vs BAS","-3,58"
same,logFC(D142_PHE - D142_BAS) LRIG1,ProbeID ILMN_2128795,"2,70"
same,logFC(D142_PHE - D142_BAS) CYBASC3,ProbeID ILMN_2129505,"-2,00"
same,logFC(D142_PHE - D142_BAS) IGFBP5,ProbeID ILMN_2132982,"2,36"
same,logFC(D142_PHE - D142_BAS) POL3S,ProbeID ILMN_2133187,"2,59"
same,logFC(D142_PHE - D142_BAS) PLIN2,ProbeID ILMN_2138765,"3,41"
same,logFC(D142_PHE - D142_BAS) HIST2H2AA3,ProbeID ILMN_2144426,"3,65"
same,logFC(D142_PHE - D142_BAS) TNC,"ProbeID ILMN_2145670, PHE vs BAS","-2,96"
same,logFC(D142_PHE - D142_BAS) GBP1,"ProbeID ILMN_2148785, PHE vs BAS","-2,77"
same,logFC(D142_PHE - D142_BAS) SERPINB2,ProbeID ILMN_2150851,"2,73"
same,logFC(D142_PHE - D142_BAS) SERPINB2,ProbeID ILMN_2150856,"2,92"
same,logFC(D142_PHE - D142_BAS) ALDH1B1,"ProbeID ILMN_2150894, PHE vs BAS","-3,56"
same,logFC(D142_PHE - D142_BAS) MNS1,ProbeID ILMN_2157240,"-2,02"
same,logFC(D142_PHE - D142_BAS) GPI,ProbeID ILMN_2173451,"2,47"
same,logFC(D142_PHE - D142_BAS) MT1E,ProbeID ILMN_2173611,"-2,20"
same,logFC(D142_PHE - D142_BAS) IL8,ProbeID ILMN_2184373,"6,28"
same,logFC(D142_PHE - D142_BAS) PFKFB3,ProbeID ILMN_2186061,"5,23"
same,logFC(D142_PHE - D142_BAS) RRAD,ProbeID ILMN_2186137,"3,18"
same,logFC(D142_PHE - D142_BAS) GDF15,ProbeID ILMN_2188862,"4,56"
same,logFC(D142_PHE - D142_BAS) MELK,ProbeID ILMN_2212909,"-2,05"
same,logFC(D142_PHE - D142_BAS) PGK1,ProbeID ILMN_2216852,"2,97"
same,logFC(D142_PHE - D142_BAS) PTGR1,ProbeID ILMN_2225537,"2,90"
same,logFC(D142_PHE - D142_BAS) SLAMF9,ProbeID ILMN_2227248,"2,67"
same,logFC(D142_PHE - D142_BAS) PCDH18,"ProbeID ILMN_2229877, PHE vs BAS","-2,41"
same,logFC(D142_PHE - D142_BAS) BEX1,"ProbeID ILMN_2234697, PHE vs BAS","-4,70"
same,logFC(D142_PHE - D142_BAS) LEPR,"ProbeID ILMN_2234956, PHE vs BAS","-2,85"
same,logFC(D142_PHE - D142_BAS) KIAA0101,"ProbeID ILMN_2285996, PHE vs BAS","-3,27"
same,logFC(D142_PHE - D142_BAS) UBE2C,ProbeID ILMN_2301083,"-2,20"
same,logFC(D142_PHE - D142_BAS) VCAM1,"ProbeID ILMN_2307903, PHE vs BAS","-5,09"
same,logFC(D142_PHE - D142_BAS) WFDC3,ProbeID ILMN_2308903,"2,87"
same,logFC(D142_PHE - D142_BAS) MAFF,ProbeID ILMN_2322375,"3,04"
same,logFC(D142_PHE - D142_BAS) RORA,ProbeID ILMN_2322498,"2,13"
same,logFC(D142_PHE - D142_BAS) CALD1,ProbeID ILMN_2324002,"-2,11"
same,logFC(D142_PHE - D142_BAS) TXNRD1,ProbeID ILMN_2324421,"2,30"
same,logFC(D142_PHE - D142_BAS) MSRB3,ProbeID ILMN_2332553,"-2,12"
same,logFC(D142_PHE - D142_BAS) PORCN,ProbeID ILMN_2337058,"3,30"
same,logFC(D142_PHE - D142_BAS) AK3L1,ProbeID ILMN_2338038,"2,61"
same,logFC(D142_PHE - D142_BAS) METRNL,ProbeID ILMN_2342066,"2,12"
same,logFC(D142_PHE - D142_BAS) FMO3,ProbeID ILMN_2344283,"-2,27"
same,logFC(D142_PHE - D142_BAS) BIRC5,"ProbeID ILMN_2349459, PHE vs BAS","-2,71"
same,logFC(D142_PHE - D142_BAS) MAD1L1,ProbeID ILMN_2358069,"2,09"
same,logFC(D142_PHE - D142_BAS) TPM1,ProbeID ILMN_2360710,"-2,27"
same,logFC(D142_PHE - D142_BAS) VLDLR,ProbeID ILMN_2361862,"3,53"
same,logFC(D142_PHE - D142_BAS) SLC16A3,ProbeID ILMN_2364022,"2,29"
same,logFC(D142_PHE - D142_BAS) SMOX,ProbeID ILMN_2367258,"2,05"
same,logFC(D142_PHE - D142_BAS) CXCR7,ProbeID ILMN_2371458,"2,54"
same,logFC(D142_PHE - D142_BAS) MUC1,ProbeID ILMN_2371911,"2,27"
same,logFC(D142_PHE - D142_BAS) ATF3,ProbeID ILMN_2374865,"2,39"
same,logFC(D142_PHE - D142_BAS) VEGFA,ProbeID ILMN_2375879,"4,30"
same,logFC(D142_PHE - D142_BAS) KCNK2,"ProbeID ILMN_2376953, PHE vs BAS","-3,27"
same,logFC(D142_PHE - D142_BAS) PTPRF,ProbeID ILMN_2380163,"2,36"
same,logFC(D142_PHE - D142_BAS) AKR1A1,ProbeID ILMN_2380771,"-2,14"
same,logFC(D142_PHE - D142_BAS) P4HA2,ProbeID ILMN_2381697,"2,27"
same,logFC(D142_PHE - D142_BAS) CA12,ProbeID ILMN_2382942,"2,61"
same,logFC(D142_PHE - D142_BAS) ANGPTL4,ProbeID ILMN_2386444,"3,59"
same,logFC(D142_PHE - D142_BAS) EPSTI1,"ProbeID ILMN_2388547, PHE vs BAS","-2,93"
same,logFC(D142_PHE - D142_BAS) PSMB8,"ProbeID ILMN_2390299, PHE vs BAS","-2,40"
same,logFC(D142_PHE - D142_BAS) UBE2E3,ProbeID ILMN_2390338,"-2,31"
same,logFC(D142_PHE - D142_BAS) FBLN2,ProbeID ILMN_2390919,"-2,30"
same,logFC(D142_PHE - D142_BAS) TAGLN,"ProbeID ILMN_2400935, PHE vs BAS","-3,44"
same,logFC(D142_PHE - D142_BAS) FAM13A,ProbeID ILMN_2401258,"2,84"
same,logFC(D142_PHE - D142_BAS) RIOK3,ProbeID ILMN_2404135,"2,47"
same,logFC(D142_PHE - D142_BAS) ARNTL,ProbeID ILMN_2405305,"2,05"
same,logFC(D142_PHE - D142_BAS) PODXL,ProbeID ILMN_2413158,"3,57"
same,logFC(D142_PHE - D142_BAS) LOC100130790,ProbeID ILMN_3181489,"3,33"
same,logFC(D142_PHE - D142_BAS) LOC727803,ProbeID ILMN_3212373,"-2,02"
same,logFC(D142_PHE - D142_BAS) LOC730415,ProbeID ILMN_3228688,"2,25"
same,logFC(D142_PHE - D142_BAS) LOC390557,ProbeID ILMN_3233930,"2,45"
same,logFC(D142_PHE - D142_BAS) LOC100133609,ProbeID ILMN_3237270,"2,75"
same,logFC(D142_PHE - D142_BAS) BEND5,ProbeID ILMN_3237448,"2,26"
same,logFC(D142_PHE - D142_BAS) C4orf47,ProbeID ILMN_3237511,"2,24"
same,logFC(D142_PHE - D142_BAS) FBXL11,ProbeID ILMN_3237966,"2,06"
same,logFC(D142_PHE - D142_BAS) DLGAP5,ProbeID ILMN_3239771,"-2,24"
same,logFC(D142_PHE - D142_BAS) HIST2H2AA4,ProbeID ILMN_3242900,"3,75"
same,logFC(D142_PHE - D142_BAS) FAM180A,ProbeID ILMN_3245418,"2,34"
same,logFC(D142_PHE - D142_BAS) LOC730743,"ProbeID ILMN_3247132, PHE vs BAS","-2,35"
same,logFC(D142_PHE - D142_BAS) GAPDHL6,ProbeID ILMN_3267451,"2,90"
same,logFC(D142_PHE - D142_BAS) LOC100132510,ProbeID ILMN_3280402,"2,32"
same,logFC(D142_PHE - D142_BAS) LOC644237,ProbeID ILMN_3283772,"2,73"
same,logFC(D142_PHE - D142_BAS) LOC729708,ProbeID ILMN_3305475,"2,12"
same,logFC(D142_PHE - D142_BAS) LOC730246,ProbeID ILMN_3305949,"-2,06"
same,logFC(D142_PHE - D142_BAS) MIR1974,ProbeID ILMN_3308961,"3,51"
